The values below are quoted from earlier work in patent publication US11123309B2, “Methods for drug delivery, tumor imaging, and oxidative dehydrogenation using hierarchical ZSM-5 complex” (Imam Abdulrahman Bin Faisal University, priority 2018, dated 2021).

Structures are written as SMILES.

Consider `Oc1ccc(/C=C/c2cc(O)cc(O)c2)cc1` [resveratrol, 3,5,4′ trihydroxy trans stilbene], for which the solubility in water is 50 microgram per ml.
